Source: ChEMBL document CHEMBL1201862, “PubChem BioAssay data set” (2004)
Active and inactive are the calls of the source.

Legend:
[1] = biological target: T1, Eukaryotic translation initiation factor 2-alpha kinase 3 (Homo sapiens, UniProt Q9NZJ5); assay: Dose response cell-based high-throughput screening assay to measure PERK inhibition. [Related pubchem assays: 1416 ]; format: functional
T1 sequence (Q9NZJ5 whole entry): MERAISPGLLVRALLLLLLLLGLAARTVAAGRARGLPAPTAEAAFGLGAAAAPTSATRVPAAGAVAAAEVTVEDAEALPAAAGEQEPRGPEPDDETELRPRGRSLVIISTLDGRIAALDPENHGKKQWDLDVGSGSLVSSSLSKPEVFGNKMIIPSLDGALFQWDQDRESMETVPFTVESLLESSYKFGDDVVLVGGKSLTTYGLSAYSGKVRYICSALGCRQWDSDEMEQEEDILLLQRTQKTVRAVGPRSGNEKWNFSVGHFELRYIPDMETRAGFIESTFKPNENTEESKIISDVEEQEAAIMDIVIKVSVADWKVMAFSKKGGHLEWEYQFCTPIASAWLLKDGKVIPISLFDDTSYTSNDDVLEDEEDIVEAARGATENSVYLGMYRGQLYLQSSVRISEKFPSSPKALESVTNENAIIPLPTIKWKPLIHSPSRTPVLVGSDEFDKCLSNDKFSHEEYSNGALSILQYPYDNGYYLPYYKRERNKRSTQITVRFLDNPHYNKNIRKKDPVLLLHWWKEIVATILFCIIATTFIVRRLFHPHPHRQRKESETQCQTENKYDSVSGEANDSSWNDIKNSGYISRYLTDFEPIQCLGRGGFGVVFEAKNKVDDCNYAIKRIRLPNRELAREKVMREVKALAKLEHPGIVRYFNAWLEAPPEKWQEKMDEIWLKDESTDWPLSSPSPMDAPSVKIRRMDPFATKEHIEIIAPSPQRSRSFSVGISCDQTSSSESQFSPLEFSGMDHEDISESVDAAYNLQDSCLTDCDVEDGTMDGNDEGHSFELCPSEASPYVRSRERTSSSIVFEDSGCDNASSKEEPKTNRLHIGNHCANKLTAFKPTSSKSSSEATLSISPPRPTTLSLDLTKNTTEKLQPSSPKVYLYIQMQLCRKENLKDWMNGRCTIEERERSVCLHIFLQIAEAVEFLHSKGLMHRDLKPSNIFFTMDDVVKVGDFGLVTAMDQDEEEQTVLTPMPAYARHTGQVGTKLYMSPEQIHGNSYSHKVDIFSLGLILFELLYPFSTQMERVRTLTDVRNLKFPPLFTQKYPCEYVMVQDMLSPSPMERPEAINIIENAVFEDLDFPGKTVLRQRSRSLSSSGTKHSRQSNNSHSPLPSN

[2] = biological target: T1, Eukaryotic translation initiation factor 2-alpha kinase 3; assay: Counterscreen assay for PERK inhibitors: Dose response cell-based high throughput screening assay to measure inhibition of PERK at 6 hours. [Related pubchem assays: 1522, 1416 ]; format: functional
[3] = microbe, parasite or virus in culture; format: functional; conditions: Mycobacterium tuberculosis
[4] = biological target: Neurotensin receptor type 1 (Homo sapiens, UniProt P30989); format: functional;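 note: Image-based confirmatory dose-response assay measuring agonist activity at NTR1; NTR1-expressing U2OS osteosarcoma cells imaged for beta-arrestin GFP spot formation; agonist potency where compounds increase beta-arrestin recruitment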
Chain of Neurotensin receptor type 1 (P30989 whole entry): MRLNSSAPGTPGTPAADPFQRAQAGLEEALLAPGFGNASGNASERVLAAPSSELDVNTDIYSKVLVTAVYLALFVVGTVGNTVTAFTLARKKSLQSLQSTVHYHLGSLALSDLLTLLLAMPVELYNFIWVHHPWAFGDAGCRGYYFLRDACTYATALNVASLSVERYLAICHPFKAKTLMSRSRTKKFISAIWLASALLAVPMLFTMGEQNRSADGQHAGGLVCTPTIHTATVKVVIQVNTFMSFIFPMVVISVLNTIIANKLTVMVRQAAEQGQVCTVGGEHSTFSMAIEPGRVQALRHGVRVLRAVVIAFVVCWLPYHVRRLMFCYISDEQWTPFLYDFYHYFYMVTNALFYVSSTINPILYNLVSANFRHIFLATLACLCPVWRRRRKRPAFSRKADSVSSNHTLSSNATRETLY

[5] = toxicity toward HepG2 liver cells – cell-based, plate reader, cherry-pick, antagonist series, cytotoxicity control, dose response (AID 743416); format: functional
[6] = blockers of bursicon-stimulated LGR2 cAMP reporter – cell-based, HEK293, CRE-luciferase reporter, cherry pick, set 2, dose response (AID 743343); format: functional;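 note: transfected cells were stimulated with diluted bursicon conditioned medium after compound addition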
[7] = blockade of melanocortin 4 receptor signaling – cell-based, plate reader, cherry pick, counter-screen for LGR2 antagonist project, dose response (AID 743444); format: functional;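 note: transfected HEK 293 cells stimulated with alpha-MSH peptide; potency of inhibitors of the alpha-MSH evoked signal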
[8] = biological target: Melanin-concentrating hormone receptor 1 (Homo sapiens, UniProt Q99705); assay: Fluorescence-based counterscreen for antagonists of the G-protein coupled receptor 7 (GPR7): cell-based high throughput dose response assay to identify antagonists of the melanin-concentrating hormone receptor 1 (MCHR1).; format: functional
Chain of Melanin-concentrating hormone receptor 1 (Q99705 whole entry): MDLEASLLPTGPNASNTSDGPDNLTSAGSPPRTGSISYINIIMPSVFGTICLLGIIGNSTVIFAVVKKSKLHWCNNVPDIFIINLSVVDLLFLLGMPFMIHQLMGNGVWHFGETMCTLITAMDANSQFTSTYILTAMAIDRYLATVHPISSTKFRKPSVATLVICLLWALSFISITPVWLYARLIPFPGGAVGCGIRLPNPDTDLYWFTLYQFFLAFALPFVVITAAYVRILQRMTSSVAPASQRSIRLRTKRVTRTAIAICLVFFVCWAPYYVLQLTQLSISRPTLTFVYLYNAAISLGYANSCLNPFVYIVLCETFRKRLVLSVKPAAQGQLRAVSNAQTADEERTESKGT

[9] = biological target: DNA dC->dU-editing enzyme APOBEC-3A (Homo sapiens, UniProt P31941); assay: A3A deaminase inhibition for selectivity – biochemical, dose response (AID 504722); format: functional
Chain of DNA dC->dU-editing enzyme APOBEC-3A (P31941 whole entry): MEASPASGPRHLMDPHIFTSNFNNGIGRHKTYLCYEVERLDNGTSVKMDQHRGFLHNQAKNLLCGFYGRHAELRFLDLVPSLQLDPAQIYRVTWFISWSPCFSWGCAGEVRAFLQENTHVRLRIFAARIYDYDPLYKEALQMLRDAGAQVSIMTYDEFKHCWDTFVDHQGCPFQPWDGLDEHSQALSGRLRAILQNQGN

[10] = biological target: DNA dC->dU-editing enzyme APOBEC-3G (Homo sapiens, UniProt Q9HC16); assay: Dose Response confirmation of small molecule APOBEC3G DNA Deaminase Inhibitors via a fluorescence-based single-stranded DNA deaminase assay. [Related pubchem assays (depositor defined):AID493012, AID493028]; format: functional
Chain of DNA dC->dU-editing enzyme APOBEC-3G (Q9HC16 whole entry): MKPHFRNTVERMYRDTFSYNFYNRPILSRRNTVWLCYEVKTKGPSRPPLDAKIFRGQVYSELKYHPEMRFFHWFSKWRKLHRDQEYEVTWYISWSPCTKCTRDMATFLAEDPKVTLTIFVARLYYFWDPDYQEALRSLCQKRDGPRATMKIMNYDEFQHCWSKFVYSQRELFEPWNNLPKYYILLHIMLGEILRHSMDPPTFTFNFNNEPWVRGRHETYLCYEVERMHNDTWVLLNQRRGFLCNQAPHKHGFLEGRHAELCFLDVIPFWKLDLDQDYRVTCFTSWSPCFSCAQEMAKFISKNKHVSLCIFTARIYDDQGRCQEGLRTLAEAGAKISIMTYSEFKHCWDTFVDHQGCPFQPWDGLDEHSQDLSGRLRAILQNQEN

[11] = biological target: Protein-tyrosine kinase 2-beta (Homo sapiens, UniProt Q14289);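 note: potency of inhibitors of PYK2 kinase phosphorylation of poly-GT substrate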
Chain of Protein-tyrosine kinase 2-beta (Q14289 whole entry): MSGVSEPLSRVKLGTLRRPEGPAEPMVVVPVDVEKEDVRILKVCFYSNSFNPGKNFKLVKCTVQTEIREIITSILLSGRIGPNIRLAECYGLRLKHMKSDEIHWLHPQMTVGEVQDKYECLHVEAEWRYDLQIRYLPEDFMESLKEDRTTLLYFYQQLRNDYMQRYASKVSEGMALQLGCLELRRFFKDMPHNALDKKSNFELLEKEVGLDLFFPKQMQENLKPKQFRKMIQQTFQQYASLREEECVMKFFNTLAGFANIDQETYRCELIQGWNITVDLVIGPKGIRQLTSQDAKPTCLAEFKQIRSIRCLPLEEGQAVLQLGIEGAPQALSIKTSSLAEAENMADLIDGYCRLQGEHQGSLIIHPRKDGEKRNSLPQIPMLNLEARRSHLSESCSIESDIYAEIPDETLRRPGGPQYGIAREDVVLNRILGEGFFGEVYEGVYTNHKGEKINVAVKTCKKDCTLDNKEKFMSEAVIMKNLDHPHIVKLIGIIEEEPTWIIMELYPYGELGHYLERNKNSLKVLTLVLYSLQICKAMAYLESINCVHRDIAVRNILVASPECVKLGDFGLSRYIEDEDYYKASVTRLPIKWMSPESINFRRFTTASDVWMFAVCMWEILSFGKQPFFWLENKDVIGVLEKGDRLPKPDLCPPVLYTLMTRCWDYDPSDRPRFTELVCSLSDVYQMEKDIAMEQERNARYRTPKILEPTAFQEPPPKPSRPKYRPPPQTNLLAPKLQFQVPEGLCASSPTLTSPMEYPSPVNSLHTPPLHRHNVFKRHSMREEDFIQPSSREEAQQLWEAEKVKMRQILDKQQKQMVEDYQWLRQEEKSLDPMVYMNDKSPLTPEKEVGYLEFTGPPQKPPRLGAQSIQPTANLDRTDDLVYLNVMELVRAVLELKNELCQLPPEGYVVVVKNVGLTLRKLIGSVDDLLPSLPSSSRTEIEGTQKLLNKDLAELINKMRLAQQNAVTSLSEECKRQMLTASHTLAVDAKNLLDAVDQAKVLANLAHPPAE

[12] = biological target: Cyclin-dependent kinase 5/CDK5 activator 1 (Homo sapiens, UniProt Q00535); assay: blockade of human CDK5 activity – biochemical, cherry-picked samples, set 2, dose response (AID 504545)
Chain of Cyclin-dependent kinase 5/CDK5 activator 1 (Q00535 whole entry): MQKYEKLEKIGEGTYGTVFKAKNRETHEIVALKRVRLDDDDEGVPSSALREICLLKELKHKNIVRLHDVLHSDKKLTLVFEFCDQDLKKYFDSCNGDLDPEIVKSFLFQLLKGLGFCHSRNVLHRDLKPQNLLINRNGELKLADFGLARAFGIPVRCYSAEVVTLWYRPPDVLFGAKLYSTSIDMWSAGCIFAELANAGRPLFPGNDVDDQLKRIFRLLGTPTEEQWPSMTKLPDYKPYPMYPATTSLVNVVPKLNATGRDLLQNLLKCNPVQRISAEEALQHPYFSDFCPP
Chain of Cyclin-dependent kinase 5/CDK5 activator 1 (Q15078 whole entry, further chain): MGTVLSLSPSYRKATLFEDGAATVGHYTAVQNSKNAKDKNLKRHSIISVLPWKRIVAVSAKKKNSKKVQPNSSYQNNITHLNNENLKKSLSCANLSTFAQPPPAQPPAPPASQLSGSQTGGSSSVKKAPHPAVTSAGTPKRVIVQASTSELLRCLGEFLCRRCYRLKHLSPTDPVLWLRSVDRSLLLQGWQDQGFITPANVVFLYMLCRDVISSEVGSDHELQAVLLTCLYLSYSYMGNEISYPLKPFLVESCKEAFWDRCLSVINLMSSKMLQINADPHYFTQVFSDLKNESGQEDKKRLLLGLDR

[13] = biological target: T2, Heat shock factor protein 1 (Mus musculus, UniProt P38532); assay: enhancement of HSF1-driven luciferase signal – cell-based, NIH3T3, luminescence, dose retest, confirmation (AID 435004); format: functional;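 note: stress induced by proteasome inhibitor MG132 added 30 min after compound; luciferase reporter driven by HSF1 response element in NIH3T3 cells; actives raise luminescence as potentiators of the MG132 stress response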
T2 sequence (P38532 whole entry): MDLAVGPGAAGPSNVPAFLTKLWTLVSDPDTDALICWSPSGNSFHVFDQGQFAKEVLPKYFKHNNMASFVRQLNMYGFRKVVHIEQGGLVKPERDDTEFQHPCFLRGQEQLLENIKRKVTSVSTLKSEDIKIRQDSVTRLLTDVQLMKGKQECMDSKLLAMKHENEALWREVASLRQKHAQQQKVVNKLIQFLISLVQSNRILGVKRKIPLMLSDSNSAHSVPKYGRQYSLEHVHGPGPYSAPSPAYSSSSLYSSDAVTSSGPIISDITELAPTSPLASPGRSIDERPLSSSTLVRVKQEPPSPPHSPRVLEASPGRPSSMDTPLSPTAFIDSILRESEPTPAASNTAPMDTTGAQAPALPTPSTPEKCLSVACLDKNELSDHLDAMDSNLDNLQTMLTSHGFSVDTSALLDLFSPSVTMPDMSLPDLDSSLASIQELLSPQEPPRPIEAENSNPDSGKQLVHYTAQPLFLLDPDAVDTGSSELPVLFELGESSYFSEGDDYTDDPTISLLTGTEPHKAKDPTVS

HeLa = assay: viability loss in HeLa cells – cell-based, 24 h, cherry-picked samples, cytotoxicity control, dose response (AID 504726); format: functional; conditions: Homo sapiens;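 note: potency for cytotoxicity as loss of luminescence signal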
ORF 73 = ORF 73 (Human herpesvirus 8, UniProt O40947); assay: KSHV LANA DNA-binding disruption – biochemical, fluorescence polarization, cherry-picked samples, dose response (AID 504725); set-up: species or system Human gammaherpesvirus 8;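 note: fluorescence polarization of a labeled DNA duplex reporting LANA DNA binding; potency is for inhibitors that block LANA binding to the DNA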
Chain of ORF 73 (O40947 whole entry): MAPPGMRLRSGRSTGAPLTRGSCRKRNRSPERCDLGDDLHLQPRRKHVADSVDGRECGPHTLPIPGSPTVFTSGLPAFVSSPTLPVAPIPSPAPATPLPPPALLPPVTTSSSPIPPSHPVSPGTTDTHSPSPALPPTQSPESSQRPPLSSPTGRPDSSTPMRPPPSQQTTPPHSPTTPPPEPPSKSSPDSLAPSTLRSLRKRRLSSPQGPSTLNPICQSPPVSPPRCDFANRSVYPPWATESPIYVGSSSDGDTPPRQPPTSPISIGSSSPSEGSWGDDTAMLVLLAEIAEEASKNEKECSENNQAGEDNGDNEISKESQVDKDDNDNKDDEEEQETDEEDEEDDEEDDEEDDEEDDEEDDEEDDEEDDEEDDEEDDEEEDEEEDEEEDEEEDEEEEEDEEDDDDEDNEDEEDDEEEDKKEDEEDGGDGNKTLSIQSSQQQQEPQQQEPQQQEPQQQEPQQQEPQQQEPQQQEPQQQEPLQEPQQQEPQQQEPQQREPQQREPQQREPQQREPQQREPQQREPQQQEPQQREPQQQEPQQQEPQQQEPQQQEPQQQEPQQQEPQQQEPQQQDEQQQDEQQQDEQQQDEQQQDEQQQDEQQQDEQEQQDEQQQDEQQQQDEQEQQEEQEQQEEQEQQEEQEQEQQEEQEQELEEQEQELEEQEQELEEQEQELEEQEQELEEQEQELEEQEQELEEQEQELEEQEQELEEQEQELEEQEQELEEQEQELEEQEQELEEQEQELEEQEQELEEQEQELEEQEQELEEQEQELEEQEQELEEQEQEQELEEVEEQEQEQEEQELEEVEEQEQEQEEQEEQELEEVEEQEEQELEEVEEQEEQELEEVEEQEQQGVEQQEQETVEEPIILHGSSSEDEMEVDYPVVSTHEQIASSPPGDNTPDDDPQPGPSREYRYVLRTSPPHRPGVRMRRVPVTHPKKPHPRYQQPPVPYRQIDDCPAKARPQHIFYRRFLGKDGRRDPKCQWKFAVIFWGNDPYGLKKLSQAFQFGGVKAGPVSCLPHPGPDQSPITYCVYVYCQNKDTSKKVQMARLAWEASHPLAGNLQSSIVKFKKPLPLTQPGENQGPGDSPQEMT

Insulin-degrading enzyme [14] = biological target: T3, Insulin-degrading enzyme (Homo sapiens, UniProt P14735); assay: recombinant IDE activation, cell-free – biochemical, fluorescence polarization, counter-screen for IDE activator project, dose response (AID 588681)
T3 sequence (P14735 whole entry): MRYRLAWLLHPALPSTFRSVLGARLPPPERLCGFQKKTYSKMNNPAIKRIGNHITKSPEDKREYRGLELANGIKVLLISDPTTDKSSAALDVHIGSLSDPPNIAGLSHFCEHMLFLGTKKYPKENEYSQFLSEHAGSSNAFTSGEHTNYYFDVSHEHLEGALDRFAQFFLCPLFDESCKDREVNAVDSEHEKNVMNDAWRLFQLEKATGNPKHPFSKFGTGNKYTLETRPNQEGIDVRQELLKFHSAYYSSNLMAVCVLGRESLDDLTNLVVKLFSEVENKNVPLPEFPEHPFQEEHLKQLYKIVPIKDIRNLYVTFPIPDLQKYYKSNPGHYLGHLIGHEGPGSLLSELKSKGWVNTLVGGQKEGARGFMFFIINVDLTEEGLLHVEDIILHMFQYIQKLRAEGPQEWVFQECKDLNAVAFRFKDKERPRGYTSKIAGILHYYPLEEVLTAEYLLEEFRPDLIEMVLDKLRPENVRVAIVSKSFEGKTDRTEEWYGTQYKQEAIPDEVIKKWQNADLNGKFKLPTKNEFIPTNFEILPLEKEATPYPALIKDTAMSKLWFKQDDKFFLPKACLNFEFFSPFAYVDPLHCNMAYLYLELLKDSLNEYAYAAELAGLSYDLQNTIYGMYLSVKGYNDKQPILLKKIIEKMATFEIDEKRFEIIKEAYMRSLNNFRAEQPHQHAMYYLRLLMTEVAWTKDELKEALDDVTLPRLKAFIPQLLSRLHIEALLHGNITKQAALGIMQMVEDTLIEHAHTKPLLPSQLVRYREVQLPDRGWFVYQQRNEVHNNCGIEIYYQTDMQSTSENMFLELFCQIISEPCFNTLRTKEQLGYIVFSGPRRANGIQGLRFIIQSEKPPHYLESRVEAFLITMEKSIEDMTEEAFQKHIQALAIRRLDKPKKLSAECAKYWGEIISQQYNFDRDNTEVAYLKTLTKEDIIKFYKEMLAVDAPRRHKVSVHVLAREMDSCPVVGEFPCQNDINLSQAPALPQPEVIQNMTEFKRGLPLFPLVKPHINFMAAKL

Insulin-degrading enzyme [15] = biological target: T3, Insulin-degrading enzyme; assay: cellular IDE activation of Abeta substrate cleavage – fluorescence polarization, HEK cells, dose response (AID 588439); format: functional, cell-based
HEK293 = assay: membrane integrity loss in HEK cells – cell-based, fluorescence, cytotoxicity control for IDE activator project, dose response (AID 588440); format: functional, Homo sapiens; conditions: hek293;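 note: cytotoxicity by LDH release measuring loss of membrane integrity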
[16] = viability loss in HeLa cells – cytotoxicity control for MgcRacGAP inhibitor project, dose response (AID 624300); format: functional
[17] = biological target: T4, Rac GTPase-activating protein 1 (Homo sapiens, UniProt Q9H0H5); assay: blockers of MgcRacGAP-driven Rac1 GTP hydrolysis – biochemical, ADP Hunter fluorescence, primary and confirmatory, confirmation (AID 624330); format: functional
T4 sequence (Q9H0H5 whole entry): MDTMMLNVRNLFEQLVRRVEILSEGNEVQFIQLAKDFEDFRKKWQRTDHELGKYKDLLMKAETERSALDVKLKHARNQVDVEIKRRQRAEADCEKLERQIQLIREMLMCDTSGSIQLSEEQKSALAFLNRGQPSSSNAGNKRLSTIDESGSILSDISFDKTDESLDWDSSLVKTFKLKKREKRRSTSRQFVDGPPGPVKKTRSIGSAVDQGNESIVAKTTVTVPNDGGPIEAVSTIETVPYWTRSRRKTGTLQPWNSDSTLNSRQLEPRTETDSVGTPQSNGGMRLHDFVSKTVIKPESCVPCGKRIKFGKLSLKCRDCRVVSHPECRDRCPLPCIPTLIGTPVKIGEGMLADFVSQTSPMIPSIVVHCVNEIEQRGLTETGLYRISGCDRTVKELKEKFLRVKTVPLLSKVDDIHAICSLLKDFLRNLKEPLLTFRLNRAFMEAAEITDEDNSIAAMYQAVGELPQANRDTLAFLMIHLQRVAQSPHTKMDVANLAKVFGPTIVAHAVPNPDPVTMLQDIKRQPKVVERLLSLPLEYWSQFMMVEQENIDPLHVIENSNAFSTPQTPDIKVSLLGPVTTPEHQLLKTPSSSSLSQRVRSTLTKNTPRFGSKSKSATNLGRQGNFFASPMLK

Cc1cc(C)c(NC(=O)NC(=O)C(Cl)(Cl)Cl)c(C)c1
EC50 [1]: > 55.7 µM (not active) | EC50 [2]: > 55.7 µM (not active)

COC(=O)c1ccc(NC(=O)CSc2nc3ccc(N4C(=O)C5C6C=CC(C6)C5C4=O)cc3s2)cc1 (stereo unspecified)
CC50 [3]: > 40 µM (active) | EC50 [4]: > 40 µM (inactive) | AC50 [5]: > 52 µM (inactive) | AC50 [6]: 8.11 µM (active) | AC50 [7]: 7.79 µM (active)

CCOC(=O)C(C)On1c(-c2ccccc2)nc2ccc([N+](=O)[O-])cc21 (stereo unspecified)
IC50 [8]: 15.9 µM (not active)

Sc1nccn1-c1ccc(Cl)cc1
IC50 [9]: > 100 µM (inactive) | IC50 [10]: 16.8 µM (active)

COc1cc(/C=N/Nc2nc(-c3ccc(S(=O)(=O)N(C)C)cc3)cs2)ccc1O
EC50 [4]: 17.6 µM (active)

O=C1Nc2ccccc2/C1=C/c1c[nH]cn1
IC50 [11]: 8.78 µM (active) | AC50 [12]: 0.268 µM (active) | EC50 [13]: 17.5 µM (active)

C[n+]1c2cc(N)ccc2cc2ccc(N)cc21 [EUFLAVINE]
AC50 (HeLa): 14.7 µM (active) | AC50 (ORF 73): 0.415 µM (active) | EC50 (Insulin-degrading enzyme [14]): > 54.7 µM (inactive) | EC50 (Insulin-degrading enzyme [15]): > 54.7 µM (inactive) | IC50 (HEK293): > 89.2 µM (inactive) | CC50 [16]: 11.6 µM (active) | IC50 [17]: 78.3 µM (active)
